Where a name gives a salt, the structure may show the parent alone.
Columns and labels:
[1] = system: Oxotremorine-induced tremor; experiment: Inhibition of Oxotremorine-induced Tremor; assay type: in vivo, mice; settings: for ED50 found: 30 min; for ED50 calculated: expected from isobole
Method: The tests were performed on mice of both sexes, each weighing 20 to 30 g. The groups consisted of 20 animals each. The test animals were treated orally with varying amounts of Cyproheptadine hydrochloride or L-Dopa, respectively.
30 minutes after the administration of L-Dopa, varying amounts of Cyproheptadine hydrochloride were introduced, and after further 30 minutes the animals were treated with a standard dosage of Oxotremorine.
In a further series of tests the animals were treated with 1 mg./kg. of Cyproheptadine hydrochloride. 30 minutes after the administration of Cyproheptadine hydrochloride, L-Dopa was introduced in varying amounts, and after a further period of 30 minutes the animals were treated with a standard dosage of Oxotremorine.
The expected ED50 values were determined by constructing an isobole, and the expected values were compared to the observed ones.

mice = experiment: Toxicity Tests (oral, individual and joint toxicity)
Method: (§1) The toxicities of the individual components were determined separately on mice. The active agents were suspended in water containing Tween 80, and the suspension was administered orally to the animals in a dosage of 20 ml./kg. The animals were kept under observation for 72 hours. The poisoned animals perished within 48 hours.
(§2) The joint toxicity of the individual active agents was determined as follows:
(§3) a. The animals were treated with 1 g/kg. of L-Dopa. 1 hour after the administration of L-Dopa, the animals were treated with varying amounts of Cyproheptadine hydrochloride.
(§4) b. The animals were treated with 2 g./kg. of L-Dopa, and varying amounts of Cyproheptadine hydrochloride were administered subsequently.
(§5) c. The animals were treated with 3 g./kg. of L-Dopa, and subsequently Cyproheptadine hydrochloride was administered in varying amounts.
(§6) In order to evaluate the changes in toxicity, the expected toxicities of the compositions listed below were determined by constructing an isobole, and the calculated data were compared to the observed ones.

[2] = as above; settings: mouse, in vivo, po; for mortality at 72 h: Perishment, %
Method: as §1, §2, §3, §4, §5, §6

motility = experiment: Examination of Locomotive Stimulating Effect on Motility Test
Method: b. Examination of Locomotive Stimulating Effect on Motility Test
The tests were performed on white mice. An intraperitoneal dosage of 500 mg./kg. of L-Dopa was administered 30 minutes after the pre-treatment with Cyproheptadine hydrochloride.

hexobarbital narcosis = experiment: Examination of Sedative Effects, Hexobarbital Narcosis Test; settings: for Positive animals/treated animals: positive = sleep higher by at least 150% than control
Method: The side effects of the individual active agents as well as those of the compositions were examined as follows:
Examination of Sedative Effects on Mice, According to the Hexobarbital Narcosis Test
The compounds to be tested were suspended in water containing Tween 80, and 20 ml./kg. dosages of the obtained suspensions were administered orally to the test animals.

[3] = system: Perphenazine-induced catalepsy; experiment: Antagonism of Perphenazine-induced Catalepsy; assay type: in vivo, white rats
Method: The synergistic increase in the antiparkinson effect was investigated by studying the inhibition of Oxotremorine-induced tremor and the antagonism of Perphenazine-induced catalepsy.
The tests were performed on white rats of both sexes, each weighing 150 to 200 g. The animals were treated orally with varying amounts of Cyproheptadine hydrochloride or L-Dopa, respectively, and 30 minutes after the introduction of the active agents the animals were treated with a standard dosage of Perphenazine [2-chloro-10-(3-/4-(2-hydroxy-ethyl)-1-piperazinyl/-propyl)-phenothiazine]. The percentage of catalepsy inhibition was examined as a function of the time.
The interaction of the active agents was studied on white rats, according to the method described above. Cyproheptadine hydrochloride was administered in oral dosages of 2 or 4 mg./kg., respectively. 30 minutes after the introduction of Cyproheptadine hydrochloride the animals were treated with varying amounts of L-Dopa, and after an additional period of 30 minutes the animals were treated with a standard dosage of Perphenazine.

[4] = Cyproheptadine hydrochloride after 200 mg./kg. L-Dopa
[5] = Cyproheptadine HCl 2.5 mg./kg. p.o. + physiological saline i.p.
[6] = Cyproheptadine hydrochloride 10 mg./kg. oral
[7] = Cyproheptadine hydrochloride 20 mg./kg. oral
[8] = Table 5, Cyproheptadine HCl 2 mg./kg. alone
[9] = Table 5, Cyproheptadine HCl 4 mg./kg. alone
[10] = L-Dopa after 1 mg./kg. Cyproheptadine HCl
[11] = physiological saline p.o. + L-Dopa 500 mg./kg. i.p.

CN1CCC(=C2c3ccccc3C=Cc3ccccc32)CC1 [Cyproheptadine HCl]
Inhibition, % ([1]; 0.2 mg./kg. after 200 mg./kg. L-Dopa pre-treatment): 0%
Inhibition, % ([1]; 0.4 mg./kg. after 200 mg./kg. L-Dopa pre-treatment): 20%
Inhibition, % ([1]; 0.8 mg./kg. after 200 mg./kg. L-Dopa pre-treatment): 50%
Inhibition, % ([1]; 1.6 mg./kg. after 200 mg./kg. L-Dopa pre-treatment): 90%
Difference (percentage deviation of ED50 calculated vs. found) [1, 4]: +107%
ED50 found [1, 4]: 0.7 mg/kg
ED50 ([1]; Mus musculus, 0.5 h, Cyproheptadine hydrochloride alone, oral, 30 min before Oxotremorine): 3 mg/kg
ED50 calculated [1, 4]: 1.45 mg/kg
Perished animals/treated animals (mice; 40 mg./kg., after 3 g./kg. L-Dopa): 1/20
Perished animals/treated animals (mice; 60 mg./kg., after 2 g./kg. L-Dopa): 0/20
Perished animals/treated animals (mice; 60 mg./kg., after 3 g./kg. L-Dopa): 5/20
Perished animals/treated animals (mice; 90 mg./kg., 1 hour after 1 g/kg. L-Dopa): 2/20
Perished animals/treated animals (mice; 90 mg./kg., after 2 g./kg. L-Dopa): 2/20
Perished animals/treated animals (mice; 90 mg./kg., after 3 g./kg. L-Dopa): 9/20
Perished animals/treated animals (mice; 200 mg./kg., 1 hour after 1 g/kg. L-Dopa): 14/20
Perished animals/treated animals (mice; 200 mg./kg., after 2 g./kg. L-Dopa): 17/20
Perished animals/treated animals (mice; 200 mg./kg., after 3 g./kg. L-Dopa): 15/20
Perished animals/treated animals (mice; 300 mg./kg., 1 hour after 1 g/kg. L-Dopa): 19/20
LD50 at 72 h [2]: 135 mg/kg
mortality at 72 h ([2]; 40 mg/kg, 40 mg./kg., after 3 g./kg. L-Dopa): 5%
mortality at 72 h ([2]; 60 mg/kg, 60 mg./kg., after 2 g./kg. L-Dopa): 0%
mortality at 72 h ([2]; 60 mg/kg, 60 mg./kg., after 3 g./kg. L-Dopa): 25%
mortality at 72 h ([2]; 90 mg/kg, 90 mg./kg., 1 hour after 1 g/kg. L-Dopa): 10%
mortality at 72 h ([2]; 90 mg/kg, 90 mg./kg., after 2 g./kg. L-Dopa): 10%
mortality at 72 h ([2]; 90 mg/kg, 90 mg./kg., after 3 g./kg. L-Dopa): 45%
mortality at 72 h ([2]; 200 mg/kg, 200 mg./kg., 1 hour after 1 g/kg. L-Dopa): 70%
mortality at 72 h ([2]; 200 mg/kg, 200 mg./kg., after 2 g./kg. L-Dopa): 85%
mortality at 72 h ([2]; 200 mg/kg, 200 mg./kg., after 3 g./kg. L-Dopa): 75%
mortality at 72 h ([2]; 300 mg/kg, 300 mg./kg., 1 hour after 1 g/kg. L-Dopa): 95%
Average No. of light interruptions (motility; [5]): 145
Change % (motility; [5]): -36%
influence on locomotive stimulating effect of L-Dopa (in words) (motility; in the tested dosages, conclusion from Table 9): does not influence the locomotive stimulating effect of L-Dopa
% positive animals (hexobarbital narcosis; 2.5 mg./kg. oral): 33%
Positive animals/treated animals (hexobarbital narcosis; 2.5 mg./kg. oral): 6/18
% positive animals (hexobarbital narcosis; 5.0 mg./kg. oral): 66%
Positive animals/treated animals (hexobarbital narcosis; 5.0 mg./kg. oral): 4/6
% positive animals (hexobarbital narcosis; 10.0 mg./kg. oral): 83%
Positive animals/treated animals (hexobarbital narcosis; 10.0 mg./kg. oral): 5/6
Percentage inhibition after 0.5 hours [3, 6]: 89%
Percentage inhibition after 1 hours [3, 6]: 72%
Percentage inhibition after 2 hours [3, 6]: 61%
Percentage inhibition after 3 hours [3, 6]: 57%
Percentage inhibition after 0.5 hours [3, 7]: 76%
Percentage inhibition after 1 hours [3, 7]: 77%
Percentage inhibition after 2 hours [3, 7]: 73%
Percentage inhibition after 3 hours [3, 7]: 59%
Percentage inhibition after 0.5 hours [3, 8]: 37%
Percentage inhibition after 1 hours [3, 8]: 8%
Percentage inhibition after 2 hours [3, 8]: 14%
Percentage inhibition after 3 hours [3, 8]: 8%
Percentage inhibition after 0.5 hours [3, 9]: 20%
Percentage inhibition after 1 hours [3, 9]: 10%
Percentage inhibition after 2 hours [3, 9]: 14%
Percentage inhibition after 3 hours [3, 9]: 18%

N[C@@H](Cc1ccc(O)c(O)c1)C(=O)O [L-Dopa, L-3,4-dihydroxyphenylalanine]
Inhibition, % ([1]; L-Dopa 50 mg./kg. after 1 mg./kg. Cyproheptadine hydrochloride): 15%
Inhibition, % ([1]; L-Dopa 100 mg./kg. after 1 mg./kg. Cyproheptadine hydrochloride): 52.5%
Inhibition, % ([1]; L-Dopa 200 mg./kg. after 1 mg./kg. Cyproheptadine hydrochloride): 67.5%
Inhibition, % ([1]; L-Dopa 400 mg./kg. after 1 mg./kg. Cyproheptadine hydrochloride): 85%
Difference (percentage deviation of ED50 calculated vs. found) [1, 10]: +117%
ED50 found [1, 10]: 120 mg/kg
ED50 calculated [1, 10]: 260 mg/kg
influence on toxicity of the other agent (in words) (mice; pre-treatments with 1 and 2 g./kg. of L-dopa): hardly influence the toxicity of Cyproheptadine hydrochloride
LD50 at 72 h [2]: 4200 mg/kg
Average No. of light interruptions (motility; [11]): 465
Change % (motility; [11]): +105%
% positive animals (hexobarbital narcosis; 520 mg./kg. oral): 0%
% positive animals (hexobarbital narcosis; 800 mg./kg. oral): 16.6%
% positive animals (hexobarbital narcosis; 1200 mg./kg. oral): 83%
Percentage inhibition after 0.5 hours ([3]; L-Dopa 100 mg./kg. oral): 2%
Percentage inhibition after 1 hours ([3]; L-Dopa 100 mg./kg. oral): 15%
Percentage inhibition after 2 hours ([3]; L-Dopa 100 mg./kg. oral): 18%
Percentage inhibition after 3 hours ([3]; L-Dopa 100 mg./kg. oral): 18%
Percentage inhibition after 4 hours ([3]; L-Dopa 100 mg./kg. oral): 10%
Percentage inhibition after 0.5 hours ([3]; L-Dopa 200 mg./kg. oral): 0%
Percentage inhibition after 1 hours ([3]; L-Dopa 200 mg./kg. oral): 23%
Percentage inhibition after 2 hours ([3]; L-Dopa 200 mg./kg. oral): 23%
Percentage inhibition after 3 hours ([3]; L-Dopa 200 mg./kg. oral): 3%
Percentage inhibition after 4 hours ([3]; L-Dopa 200 mg./kg. oral): 5%
Percentage inhibition after 0.5 hours ([3]; L-Dopa 400 mg./kg. oral): 27%
Percentage inhibition after 1 hours ([3]; L-Dopa 400 mg./kg. oral): 33%
Percentage inhibition after 2 hours ([3]; L-Dopa 400 mg./kg. oral): 32%
Percentage inhibition after 3 hours ([3]; L-Dopa 400 mg./kg. oral): 20%
Percentage inhibition after 4 hours ([3]; L-Dopa 400 mg./kg. oral): 10%

Source: patent US3988461A, “Pharmaceutical composition for the treatment of Parkinson's disease” (priority 1974, dated 1976)
